Experimental data from patent US20240280594A1, “MULTIWELL PLATE LIPOPHILICITY ASSAY” (Hoffmann-La Roche Inc., priority 2021, published 2024).
Read-outs that look alike come from different tables or passages of the source.

Columns and labels:
[1] = physchem; conditions: pH 7.4
[2] = cited from earlier work
[3] = pH 7.4
[4] = shake flask, pH 7.4, average literature value

| Structure (SMILES) | logD at 90 min [1] | Literature LogD [2, 4] | other results |
| --- | --- | --- | --- |
| CN(C)CCCN1c2ccccc2Sc2ccc(Cl)cc21 [Chlorpromazine] | 3.26 | 3.16 |  |
| CC(=O)Nc1ccc(O)cc1 [Paracetamol] |  | 0.3 |  |
| COC1=CC(=O)C[C@@H](C)[C@]12Oc1c(Cl)c(OC)cc(OC)c1C2=O [Griseofulvin] | 2.19 |  |  |
| CN(C)CCCN1c2ccccc2CCc2ccc(Cl)cc21 [Clomipramine] | 3.46 | 3.28 |  |
| CCC1(c2ccccc2)C(=O)NCNC1=O [Primidone] | 0.74 | 0.91 |  |
| C=CCc1ccccc1OCC(O)CNC(C)C (centres unmarked) [Alprenolol] | 1.03 | 0.88 |  |
| CC(C(=O)O)c1cccc(C(=O)c2ccccc2)c1 (centres unmarked) [Ketoprofen] |  | −0.23 |  |
| CC(=O)[C@H]1CC[C@H]2[C@@H]3CCC4=CC(=O)CC[C@]4(C)[C@H]3CC[C@]12C [Progesterone] |  |  | Literature LogD ([2]; pH 7.4): 3.76 |
| CN1CCCCC1CCN1c2ccccc2Sc2ccc([S+](C)[O-])cc21 (centres unmarked) [Mesoridazine] | 1.74 | 1.81 |  |
| C[C@]12CC[C@H]3[C@@H](CCC4=CC(=O)CC[C@@]43C)[C@@H]1CC[C@@H]2O [Testosterone] |  |  | Literature LogD ([2]; pH 7.4): 3.23 |
| COc1ccc(Cl)cc1C(=O)NCCc1ccc(S(=O)(=O)NC(=O)NC2CCCCC2)cc1 [Glyburide] |  | 2.19 |  |
| O=C(O)Cc1ccccc1Nc1c(Cl)cccc1Cl [Diclofenac] | 1.12 | 1.14 |  |
| CC(C)Cc1ccc(C(C)C(=O)O)cc1 (centres unmarked) [Ibuprofen] | 0.97 | 1.27 |  |
| O=C1NC(=O)C(c2ccccc2)(c2ccccc2)N1 [Phenytoin] | 2.32 | 2.23 |  |
| NC(=O)N1c2ccccc2C=Cc2ccccc21 [Carbamazepine] | 1.59 |  |  |
| CC(=O)CC(c1ccccc1)c1c(O)c2ccccc2oc1=O (centres unmarked) [Warfarin] |  |  | logD [1]: 0.87; Literature LogD ([2]; pH 7.4): 1.12 |
| NS(=O)(=O)c1cc(C2(O)NC(=O)c3ccccc32)ccc1Cl (centres unmarked) [Chlorthalidone] | 0.9 |  |  |
| CN(C)CCC=C1c2ccccc2CCc2ccccc21 [Amitriptyline] | 2.87 | 2.79 |  |
| Cc1ncc([N+](=O)[O-])n1CCO [Metronidazole] | -0.22 | −0.07 |  |
| COc1ccc2c(c1)c(CC(=O)O)c(C)n2C(=O)c1ccc(Cl)cc1 [Indomethacin] | 0.87 | 0.76 |  |
| Cn1c(=O)c2[nH]cnc2n(C)c1=O [Theophyline] |  |  | CAMDIS FBP LogD [3]: −0.16; Literature LogD ([2]; pH 7.4): −0.02 |
| C[C@]12C=CC(=O)C=C1CC[C@@H]1[C@@H]2[C@@H](O)C[C@@]2(C)[C@H]1CC[C@]2(O)C(=O)CO [Prednisolone] | 1.53 | 1.45 |  |
| CC(CCc1ccccc1)NCC(O)c1ccc(O)c(C(N)=O)c1 (centres unmarked) [Labetalol] | 1.08 | 1.09 |  |
| CCCC(C)(COC(N)=O)COC(N)=O [Meprobamate] |  |  | logD [1]: 0.76; Literature LogD ([2]; pH 7.4): 0.7 |
| COCCOC(=O)C1=C(C)NC(C)=C(C(=O)OC(C)C)C1c1cccc([N+](=O)[O-])c1 (centres unmarked) [Nimodipine] | 3.95 | 4.18 |  |
| C[C@@H]1C[C@H]2[C@@H]3CCC4=CC(=O)C=C[C@]4(C)[C@@]3(F)[C@@H](O)C[C@]2(C)[C@@]1(O)C(=O)CO [Dexamethason] |  |  | CAMDIS FBP LogD [3]: 1.82; Literature LogD ([2]; pH 7.4): 1.82 |
| CCCSc1ccc2nc(NC(=O)OC)[nH]c2c1 [Albendazole] | 3.41 | 3.29 |  |
| COCCc1ccc(OCC(O)CNC(C)C)cc1 (centres unmarked) [Metoprolol] | 0.06 | −0.17 |  |
| CC(C(=O)O)c1ccc(-c2ccccc2)c(F)c1 (centres unmarked) [Flurbiprofen] | 0.8 | 0.91 |  |
